Toxic doses and inconclusive results are not listed.
Tested on: L1210 leukemia ip in BDF1 mice, survival T/C
Test: NCI In Vivo Anticancer Drug Screen. Data for tumor model L1210 Leukemia (intraperitoneal) in B6D2F1 (BDF1) mice
Settings: endpoint: mean survival time, higher = longer survival
Method in brief: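 Transplantable tumor model; survival measured in treated vs vehicle control mice. Value = treated/control.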

[1] = dose: 25.0 mg/kg/injection, schedule: Q01DX009 (ip), vehicle: saline
[2] = dose: 25.0 mg/kg/injection, schedule: Q04DX003 (ip), vehicle: saline
[3] = dose: 50.0 mg/kg/injection, schedule: Q01DX009 (ip), vehicle: saline
[4] = dose: 50.0 mg/kg/injection, schedule: Q04DX003 (ip), vehicle: saline
[5] = dose: 100.0 mg/kg/injection, schedule: Q01DX009 (ip), vehicle: Klucel (hydroxypropylcellulose) (HPC)
[6] = dose: 200.0 mg/kg/injection, schedule: Q01DX009 (ip), vehicle: Klucel (hydroxypropylcellulose) (HPC)
[7] = dose: 400.0 mg/kg/injection, schedule: Q01DX009 (ip), vehicle: Klucel (hydroxypropylcellulose) (HPC)
[8] = dose: 100.0 mg/kg/injection, schedule: Q04DX002 (ip), vehicle: Klucel (hydroxypropylcellulose) (HPC)
[9] = dose: 200.0 mg/kg/injection, schedule: Q04DX002 (ip), vehicle: Klucel (hydroxypropylcellulose) (HPC)
[10] = dose: 25.0 mg/kg/injection, schedule: Q04DX003 (ip), vehicle: saline with Tween-80
[11] = dose: 100.0 mg/kg/injection, schedule: Q04DX003 (ip), vehicle: saline with Tween-80
[12] = dose: 100.0 mg/kg/injection, schedule: Q01DX009 (ip), vehicle: saline with Tween-80
[13] = dose: 200.0 mg/kg/injection, schedule: Q01DX009 (ip), vehicle: saline with Tween-80
[14] = dose: 400.0 mg/kg/injection, schedule: Q01DX009 (ip), vehicle: saline with Tween-80
[15] = dose: 100.0 mg/kg/injection, schedule: Q04DX002 (ip), vehicle: saline with Tween-80
[16] = dose: 200.0 mg/kg/injection, schedule: Q04DX002 (ip), vehicle: saline with Tween-80
[17] = dose: 400.0 mg/kg/injection, schedule: Q04DX002 (ip), vehicle: saline with Tween-80
[18] = dose: 100.0 mg/kg/injection, schedule: Q01DX001 (ip), vehicle: saline
[19] = dose: 200.0 mg/kg/injection, schedule: Q01DX001 (ip), vehicle: saline
[20] = dose: 400.0 mg/kg/injection, schedule: Q01DX001 (ip), vehicle: saline
[21] = dose: 100.0 mg/kg/injection, schedule: Q01DX001 (ip), vehicle: carboxymethylcellulose (CMC)
[22] = dose: 200.0 mg/kg/injection, schedule: Q01DX001 (ip), vehicle: carboxymethylcellulose (CMC)
[23] = dose: 400.0 mg/kg/injection, schedule: Q01DX001 (ip), vehicle: carboxymethylcellulose (CMC)

## COc1ccc2cc[n+](C)cc2c1
dose: 12.5 mg/kg/injection, schedule: Q01DX009 (ip), vehicle: saline
  T/C: 101 % of control
[1]
  T/C: 110 % of control
[2]
  T/C: 100 % of control
[3]
  T/C: 110 % of control
[4]
  T/C: 96 % of control

## CCOc1ccc(NC(=O)C(Br)C(Br)c2ccccc2)cc1 (configuration not stated)
[5]
  T/C: 100 % of control
[6]
  T/C: 96 % of control
[7]
  T/C: 91 % of control

## Cc1ccc(NC(C(=O)O)c2ccccc2)cc1 (configuration not stated)
[8]
  T/C: 104 % of control
[9]
  T/C: 111 % of control

## O=C(O)/C(=C\c1ccc([N+](=O)[O-])cc1)CCc1ccccc1
[5]
  T/C: 91 % of control
[6]
  T/C: 92 % of control
[7]
  T/C: 92 % of control

## Cc1cc(C)c(NC(=O)N(CCCl)N=O)cc1C
dose: 1.0 mg/kg/injection, schedule: Q01DX009 (ip), vehicle: carboxymethylcellulose (CMC)
  T/C: 104 % of control
dose: 2.0 mg/kg/injection, schedule: Q01DX009 (ip), vehicle: carboxymethylcellulose (CMC)
  T/C: 109 % of control
dose: 4.0 mg/kg/injection, schedule: Q01DX009 (ip), vehicle: carboxymethylcellulose (CMC)
  T/C: 107 % of control
dose: 50.0 mg/kg/injection, schedule: Q01DX001 (ip), vehicle: other
  T/C: 97 % of control
dose: 88.0 mg/kg/injection, schedule: Q01DX009 (ip), vehicle: carboxymethylcellulose (CMC)
  T/C: 155 % of control
dose: 100.0 mg/kg/injection, schedule: Q01DX001 (ip), vehicle: other
  T/C: 106 % of control
dose: 133.0 mg/kg/injection, schedule: Q01DX009 (ip), vehicle: carboxymethylcellulose (CMC)
  T/C: 180 % of control
dose: 200.0 mg/kg/injection, schedule: Q01DX001 (ip), vehicle: other
  T/C: 100 % of control
dose: 200.0 mg/kg/injection, schedule: Q01DX009 (ip), vehicle: carboxymethylcellulose (CMC)
  T/C: 166 % of control

## Clc1nn2nnnc2c2ccccc12
dose: 6.25 mg/kg/injection, schedule: Q04DX002 (ip), vehicle: Klucel (hydroxypropylcellulose) (HPC)
  T/C: 93 % of control
dose: 12.5 mg/kg/injection, schedule: Q04DX002 (ip), vehicle: Klucel (hydroxypropylcellulose) (HPC)
  T/C: 93 % of control
dose: 25.0 mg/kg/injection, schedule: Q04DX002 (ip), vehicle: Klucel (hydroxypropylcellulose) (HPC)
  T/C: 96 % of control
[10]
  T/C: 98 % of control
dose: 50.0 mg/kg/injection, schedule: Q04DX003 (ip), vehicle: saline with Tween-80
  T/C: 101 % of control
[11]
  T/C: 98 % of control

## CC(=O)C1(c2ccccc2)OC1c1ccccc1 (configuration not stated)
dose: 50.0 mg/kg/injection, schedule: Q01DX009 (ip), vehicle: Klucel (hydroxypropylcellulose) (HPC)
  T/C: 96 % of control
[5]
  T/C: 112 % of control
dose: 100.0 mg/kg/injection, schedule: Q04DX003 (ip), vehicle: Klucel (hydroxypropylcellulose) (HPC)
  T/C: 90 % of control
[6]
  T/C: 96 % of control
dose: 200.0 mg/kg/injection, schedule: Q04DX003 (ip), vehicle: Klucel (hydroxypropylcellulose) (HPC)
  T/C: 95 % of control

## CC(=O)Nc1ccc(CCCCc2cccc(C#N)c2)cc1
[3]
  T/C: 95 % of control
dose: 100.0 mg/kg/injection, schedule: Q01DX009 (ip), vehicle: saline
  T/C: 100 % of control
dose: 200.0 mg/kg/injection, schedule: Q01DX009 (ip), vehicle: saline
  T/C: 97 % of control

## CC1(C)N=C(N)N=C(N)N1c1ccc(OCCCOc2ccc(S(=O)(=O)F)cc2)c(Cl)c1
[1]
  T/C: 100 % of control

## O=C(O)c1nnn(Cc2ccccc2)c1C(=O)O
dose: 100.0 mg/kg/injection, schedule: Q04DX002 (ip), vehicle: saline
  T/C: 104 % of control
dose: 200.0 mg/kg/injection, schedule: Q04DX002 (ip), vehicle: saline
  T/C: 104 % of control
dose: 400.0 mg/kg/injection, schedule: Q04DX002 (ip), vehicle: saline
  T/C: 96 % of control

## CCCCN1C(=O)CSC1=S
[8]
  T/C: 97 % of control
[9]
  T/C: 113 % of control
dose: 400.0 mg/kg/injection, schedule: Q04DX002 (ip), vehicle: Klucel (hydroxypropylcellulose) (HPC)
  T/C: 100 % of control

## CCOc1cc(/C=N/NC(=S)NC23CC4CC(CC(C4)C2)C3)ccc1O
dose: 75.0 mg/kg/injection, schedule: Q01DX001 (ip), vehicle: acetone
  T/C: 101 % of control
dose: 150.0 mg/kg/injection, schedule: Q01DX001 (ip), vehicle: acetone
  T/C: 92 % of control
dose: 300.0 mg/kg/injection, schedule: Q01DX001 (ip), vehicle: acetone
  T/C: 94 % of control

## CC(O)CCc1ccccc1 (configuration not stated)
[12]
  T/C: 100 % of control
[13]
  T/C: 89 % of control
[14]
  T/C: 88 % of control

## CC1(C)C2CCC(CCOC(=O)COc3ccc(Cl)cc3Cl)C1C2 (configuration not stated)
[12]
  T/C: 104 % of control
[13]
  T/C: 94 % of control

## Cc1ccccc1N1OS(=O)(=O)CC1(C#N)c1ccccc1 (configuration not stated)
[12]
  T/C: 98 % of control
[13]
  T/C: 102 % of control
[14]
  T/C: 96 % of control

## O=C1C=CC(=C(Br)Br)O1
dose: 12.5 mg/kg/injection, schedule: Q04DX003 (ip), vehicle: saline with Tween-80
  T/C: 92 % of control
dose: 12.5 mg/kg/injection, schedule: Q04DX003 (ip), vehicle: saline
  T/C: 97 % of control
[10]
  T/C: 103 % of control
[2]
  T/C: 95 % of control
[4]
  T/C: 92 % of control
dose: 100.0 mg/kg/injection, schedule: Q04DX003 (ip), vehicle: saline
  T/C: 98 % of control

## CC(=O)C1(Cl)CCC(C(C)(C)C)CC1 (configuration not stated)
[15]
  T/C: 111 % of control
[16]
  T/C: 103 % of control
[17]
  T/C: 103 % of control

## Nc1nc(=O)n(C2CC(O)C(CO)O2)cc1Br (configuration not stated)
dose: 20.0 mg/kg/injection, schedule: Q01DX Z (ip), vehicle: carboxymethylcellulose (CMC)
  T/C: 95 % of control
dose: 40.0 mg/kg/injection, schedule: Q01DX Z (ip), vehicle: carboxymethylcellulose (CMC)
  T/C: 101 % of control
dose: 50.0 mg/kg/injection, schedule: Q01DX001 (ip), vehicle: saline
  T/C: 109 % of control
dose: 80.0 mg/kg/injection, schedule: Q01DX Z (ip), vehicle: carboxymethylcellulose (CMC)
  T/C: 101 % of control
[18]
  T/C: 105 % of control
dose: 160.0 mg/kg/injection, schedule: Q01DX Z (ip), vehicle: carboxymethylcellulose (CMC)
  T/C: 106 % of control
[19]
  T/C: 111 % of control
[20]
  T/C: 117 % of control

## C=CC[Se]c1nc(N)nc2c1ncn2C1OC(CO)C(O)C1O (configuration not stated)
dose: 12.5 mg/kg/injection, schedule: Q01DX005 (ip), vehicle: saline
  T/C: 104 % of control
dose: 25.0 mg/kg/injection, schedule: Q01DX005 (ip), vehicle: saline
  T/C: 100 % of control

## N#C/C(=C\c1ccc2c(c1)CCC2)C(N)=O
[11]
  T/C: 105 % of control
dose: 200.0 mg/kg/injection, schedule: Q04DX003 (ip), vehicle: saline with Tween-80
  T/C: 95 % of control
dose: 400.0 mg/kg/injection, schedule: Q04DX003 (ip), vehicle: saline with Tween-80
  T/C: 95 % of control

## CC(C)N1C(=O)NC(=O)C12CCN(Cc1ccccc1)CC2
[21]
  T/C: 101 % of control
[22]
  T/C: 98 % of control
[23]
  T/C: 95 % of control

## C[Si](C)(CCl)CCCO[Si](C)(C)CCl
dose: 50.0 mg/kg/injection, schedule: Q01DX001 (ip), vehicle: carboxymethylcellulose (CMC)
  T/C: 102 % of control
[21]
  T/C: 108 % of control
[22]
  T/C: 96 % of control
[23]
  T/C: 98 % of control

## CC(=O)CCCOc1ccc([N+](=O)[O-])cc1
[18]
  T/C: 98 % of control
[19]
  T/C: 98 % of control
[20]
  T/C: 101 % of control

## CC1=C(C#N)C(C)(C)c2ccccc21
[15]
  T/C: 110 % of control
[16]
  T/C: 100 % of control
[17]
  T/C: 100 % of control

## CC(=O)Nc1ccc(/C=N/NC(=O)COCC(=O)N/N=C/c2ccc(NC(C)=O)cc2)cc1
[5]
  T/C: 91 % of control
[6]
  T/C: 94 % of control
[7]
  T/C: 96 % of control

— PubChem BioAssay AID248 (DTP/NCI, 2004)
